In brackets after ≈: the same amount, converted by molar mass.
Tests used:
Type in all cases: functional
Staphylococcus aureus [1] = experiment: Antibacterial activity against Staphylococcus aureus ATCC 29213 assessed as inhibition of bacterial growth incubated for 96 hrs by broth microdilution method
Streptococcus pneumoniae = experiment: Antibacterial activity against Streptococcus pneumoniae ATCC 49619 assessed as inhibition of bacterial growth incubated for 96 hrs by broth microdilution method
Escherichia coli = experiment: Antibacterial activity against Escherichia coli ATCC 25922 assessed as inhibition of bacterial growth incubated for 96 hrs by broth microdilution method
Staphylococcus aureus [2] = experiment: Antibacterial activity against methicillin-resistant Staphylococcus aureus ATCC43300 assessed as inhibition of bacterial growth incubated for 96 hrs by broth microdilution method
[3] = test system: Staphylococcus epidermidis; experiment: Antibacterial activity against methicillin-resistant Staphylococcus epidermidis ATCC 51625 assessed as inhibition of bacterial growth incubated for 96 hrs by broth microdilution method

C=C[C@]1(C)C[C@@H](OC(=O)CSc2ccc(OCc3ccc(C)cc3)cc2)[C@]2(C)[C@H](C)CC[C@]3(CCC(=O)[C@H]32)[C@@H](C)[C@@H]1O
MIC (Staphylococcus aureus [1]): 16 µg/mL (≈ 27.1 µM)
MIC (Streptococcus pneumoniae): 16 µg/mL (≈ 27.1 µM)
MIC (Escherichia coli): > 64 µg/mL
MIC (Staphylococcus aureus [2]): 16 µg/mL (≈ 27.1 µM)
MIC [3]: 16 µg/mL (≈ 27.1 µM)

C=CCCOc1ccc(SCC(=O)O[C@@H]2C[C@@](C)(C=C)[C@@H](O)[C@H](C)[C@]34CCC(=O)[C@H]3[C@@]2(C)[C@H](C)CC4)cc1
MIC (Staphylococcus aureus [1]): 0.25 µg/mL (≈ 0.462 µM)
MIC (Streptococcus pneumoniae): 0.125 µg/mL (≈ 0.231 µM)
MIC (Escherichia coli): > 64 µg/mL
MIC (Staphylococcus aureus [2]): 0.25 µg/mL (≈ 0.462 µM)
MIC [3]: 0.125 µg/mL (≈ 0.231 µM)

C=C[C@]1(C)C[C@@H](OC(=O)CSc2ccccc2OCC#CC)[C@]2(C)[C@H](C)CC[C@]3(CCC(=O)[C@H]32)[C@@H](C)[C@@H]1O
MIC (Staphylococcus aureus [1]): 0.125 µg/mL (≈ 0.232 µM)
MIC (Streptococcus pneumoniae): < 0.031 µg/mL
MIC (Escherichia coli): > 64 µg/mL
MIC (Staphylococcus aureus [2]): 0.125 µg/mL (≈ 0.232 µM)
MIC [3]: 0.125 µg/mL (≈ 0.232 µM)

C=C[C@]1(C)C[C@@H](OC(=O)CSc2ccccc2O)[C@]2(C)[C@H](C)CC[C@]3(CCC(=O)[C@H]32)[C@@H](C)[C@@H]1O
MIC (Staphylococcus aureus [1]): 0.125 µg/mL (≈ 0.257 µM)
MIC (Streptococcus pneumoniae): 0.125 µg/mL (≈ 0.257 µM)
MIC (Escherichia coli): > 64 µg/mL
MIC (Staphylococcus aureus [2]): 0.125 µg/mL (≈ 0.257 µM)
MIC [3]: 0.125 µg/mL (≈ 0.257 µM)

C=C[C@]1(C)C[C@@H](OC(=O)CSc2ccc(OCC#CC)cc2)[C@]2(C)[C@H](C)CC[C@]3(CCC(=O)[C@H]32)[C@@H](C)[C@@H]1O
MIC (Staphylococcus aureus [1]): 0.25 µg/mL (≈ 0.464 µM)
MIC (Streptococcus pneumoniae): 0.062 µg/mL (≈ 0.115 µM)
MIC (Escherichia coli): > 64 µg/mL
MIC (Staphylococcus aureus [2]): 0.25 µg/mL (≈ 0.464 µM)
MIC [3]: 0.125 µg/mL (≈ 0.232 µM)

C=CCCOc1cccc(SCC(=O)O[C@@H]2C[C@@](C)(C=C)[C@@H](O)[C@H](C)[C@]34CCC(=O)[C@H]3[C@@]2(C)[C@H](C)CC4)c1
MIC (Staphylococcus aureus [1]): 0.5 µg/mL (≈ 0.925 µM)
MIC (Streptococcus pneumoniae): 0.5 µg/mL (≈ 0.925 µM)
MIC (Escherichia coli): > 64 µg/mL
MIC (Staphylococcus aureus [2]): 0.5 µg/mL (≈ 0.925 µM)
MIC [3]: 0.25 µg/mL (≈ 0.462 µM)

C=C[C@]1(C)C[C@@H](OC(=O)CSc2cccc(OCc3ccc(C(=O)OC(C)(C)C)cc3)c2)[C@]2(C)[C@H](C)CC[C@]3(CCC(=O)[C@H]32)[C@@H](C)[C@@H]1O
MIC (Staphylococcus aureus [1]): 4 µg/mL (≈ 5.91 µM)
MIC (Streptococcus pneumoniae): 8 µg/mL (≈ 11.8 µM)
MIC (Escherichia coli): > 64 µg/mL
MIC (Staphylococcus aureus [2]): 32 µg/mL (≈ 47.3 µM)
MIC [3]: 8 µg/mL (≈ 11.8 µM)

C=C[C@]1(C)C[C@@H](OC(=O)CSc2ccc(O)cc2)[C@]2(C)[C@H](C)CC[C@]3(CCC(=O)[C@H]32)[C@@H](C)[C@@H]1O
MIC (Staphylococcus aureus [1]): 0.062 µg/mL (≈ 0.127 µM)
MIC (Streptococcus pneumoniae): 0.125 µg/mL (≈ 0.257 µM)
MIC (Escherichia coli): > 64 µg/mL
MIC (Staphylococcus aureus [2]): 0.062 µg/mL (≈ 0.127 µM)
MIC [3]: 0.062 µg/mL (≈ 0.127 µM)

C=C[C@]1(C)C[C@@H](OC(=O)CSc2cccc(OCCCC)c2)[C@]2(C)[C@H](C)CC[C@]3(CCC(=O)[C@H]32)[C@@H](C)[C@@H]1O
MIC (Staphylococcus aureus [1]): 2 µg/mL (≈ 3.68 µM)
MIC (Streptococcus pneumoniae): 2 µg/mL (≈ 3.68 µM)
MIC (Escherichia coli): > 64 µg/mL
MIC (Staphylococcus aureus [2]): 2 µg/mL (≈ 3.68 µM)
MIC [3]: 1 µg/mL (≈ 1.84 µM)

C=C[C@]1(C)C[C@@H](OC(=O)CSc2ccccc2OCc2ccc(C)cc2)[C@]2(C)[C@H](C)CC[C@]3(CCC(=O)[C@H]32)[C@@H](C)[C@@H]1O
MIC (Staphylococcus aureus [1]): 16 µg/mL (≈ 27.1 µM)
MIC (Streptococcus pneumoniae): 16 µg/mL (≈ 27.1 µM)
MIC (Escherichia coli): > 64 µg/mL
MIC (Staphylococcus aureus [2]): 32 µg/mL (≈ 54.2 µM)
MIC [3]: 32 µg/mL (≈ 54.2 µM)

C=C[C@]1(C)C[C@@H](OC(=O)CSc2cccc(O)c2)[C@]2(C)[C@H](C)CC[C@]3(CCC(=O)[C@H]32)[C@@H](C)[C@@H]1O
MIC (Staphylococcus aureus [1]): 0.125 µg/mL (≈ 0.257 µM)
MIC (Streptococcus pneumoniae): 0.125 µg/mL (≈ 0.257 µM)
MIC (Escherichia coli): > 64 µg/mL
MIC (Staphylococcus aureus [2]): 0.062 µg/mL (≈ 0.127 µM)
MIC [3]: 0.125 µg/mL (≈ 0.257 µM)

C=C[C@]1(C)C[C@@H](OC(=O)CSc2ccccc2OCc2ccc(-c3ccccc3C#N)cc2)[C@]2(C)[C@H](C)CC[C@]3(CCC(=O)[C@H]32)[C@@H](C)[C@@H]1O
MIC (Staphylococcus aureus [1]): 2 µg/mL (≈ 2.95 µM)
MIC (Streptococcus pneumoniae): 2 µg/mL (≈ 2.95 µM)
MIC (Escherichia coli): > 64 µg/mL
MIC (Staphylococcus aureus [2]): 2 µg/mL (≈ 2.95 µM)
MIC [3]: 4 µg/mL (≈ 5.9 µM)
